According to ChEMBL document CHEMBL5321216, “Discovery of bipyridine amide derivatives targeting pRXRα-PLK1 interaction for anticancer therapy” (Eur J Med Chem, 2023):
The source made the active and inactive calls. The calls are words filed in the database; no cut-off is given here.

Legend:
MDA-MB-231 [1] = assay: Antitumor activity against human MDA-MB-231 cells xenografted in BALB/c nude mouse assessed as nuclear shrinkage in tumor at 25 mg/kg/day, ip administered for 15 days by immunohistochemical analysis; type: functional, organism-based; conditions: time 15.0 day
[2] = Elimination half life in Sprague-Dawley rat at 25 mg/kg, ip measured for 48 hrs by LC-MS/MS analysis; type: ADME, organism-based; conditions: in vivo, read-out: beta t1/2 (converted)
[3] = Drug absorption in KM mouse at 25 mg/kg, po measured after 0.5 to 2 hrs; type: ADME, organism-based; conditions: in vivo, time 0.5-2 hrs
[4] = Cytotoxicity against human MCF-10A cells assessed as inhibition of cell proliferation incubated for 72 hrs by MTT assay; type: toxicity, cell-based
MDA-MB-231 [5] = assay: Inhibition of colony formation in human MDA-MB-231 cells at 62.5 nM incubated for 48 hrs followed by replacement with normal culture medium and measured after […] by crystal violet staining based assay relative to control; type: functional
MDA-MB-231 [6] = assay: Effect on Nur77 protein expression in human MDA-MB-231 cells at 7.8 to 500 nM measured after 24 hrs by Western blot analysis; type: functional, cell-based; conditions: dose 7.8-500 nM
A549 [7] = assay: Induction of cell cycle arrest in wild type human A549 cells assessed as accumulation of cells at G1 phase at 125 nM incubated for 12 hrs by DAPI staining based flow cytometry analysis (reference value: 36.89 %); type: functional
A549 [8] = assay: Induction of cell cycle arrest in human A549 cells assessed as accumulation of cells at G2 phase at 15.625 nM incubated for 12 hrs by flow cytometry analysis (reference value: 8.62%); type: functional; conditions: 0.01562 µM
A549 [9] = assay: Induction of cell cycle arrest in human A549 cells assessed as accumulation of cells at S phase at 15.625 nM incubated for 12 hrs by flow cytometry analysis (reference value: 31.81%); type: functional; conditions: 0.01562 µM
[10] = molecular target: Nuclear receptor subfamily 4immunitygroup A member 1 (Homo sapiens) (UniProt P22736); assay: Antagonist activity at Nur77 (unknown origin) transfected in human HeLa cells at 31.25 uM incubated for 24 hrs by dual luciferase reporter assay; type: cell-based
A549 [11] = assay: Antiproliferative activity against human A549 cells assessed as cell viability rate at 5 uM incubated for 72 hrs by MTT assay relative to control; type: functional
[12] = Toxicity in BALB/c mouse xenografted with human MDA-MB-231 cells assessed as spleen damage at 25 mg/kg/day, ip administered for 15 days by H and E staining based analysis; type: organism-based; conditions: in vivo, 360 h, time 15 day
MDA-MB-231 [13] = assay: Inhibition of colony formation in human MDA-MB-231 cells incubated for 48 hrs followed by replacement with normal culture medium and measured after […] by crystal violet staining based assay; type: functional, cell-based; conditions: dose 0.976-250 nM
[14] = Selectivity index, ratio of IC50 for human NCI-H460 cells to IC50 for human MDA-MB-231 cells; type: functional
MDA-MB-231 [15] = assay: Antitumor activity against human MDA-MB-231 cells xenografted in BALB/c nude mouse assessed as reduction in tumor volume at 25 mg/kg/day, ip administered for 15 days and measured once a day; type: functional, organism-based; conditions: time 15.0 day
MDA-MB-231 [16] = assay: Induction of apoptosis in human MDA-MB-231 cells assessed as late apoptotic cells at 31.25 nM incubated for 24 hrs by annexin V-FITC/PI staining based flow cytometry analysis (reference value: 5.93%); type: functional
MDA-MB-231 [17] = assay: Induction of cell cycle arrest in human MDA-MB-231 cells assessed as accumulation of cells at S phase at 15.625 nM incubated for 12 hrs by flow cytometry analysis (reference value: 40.89%); type: functional; conditions: 0.01562 µM
MDA-MB-231 [18] = assay: Induction of apoptosis in human MDA-MB-231 cells assessed as dead cells at 125 nM incubated for 24 hrs by annexin V-FITC/PI staining based flow cytometry analysis (reference value: 0.69%); type: functional
MDA-MB-231 [19] = assay: Induction of cell cycle arrest in human MDA-MB-231 cells assessed as accumulation of cells at S phase at 62.5 nM incubated for 12 hrs by flow cytometry analysis (reference value: 40.89%); type: functional
A549 [20] = assay: Induction of cell cycle arrest in human A549 cells assessed as accumulation of cells at S phase at 31.25 nM incubated for 12 hrs by flow cytometry analysis (reference value: 31.81%); type: functional
MDA-MB-231 [21] = assay: Induction of cell cycle arrest in human MDA-MB-231 cells assessed as accumulation of cells at S phase at 125 nM incubated for 12 hrs by flow cytometry analysis (reference value: 40.89%); type: functional
[22] = molecular target: T1, Retinoic acid receptor RXR-alpha (Homo sapiens) (UniProt P19793); assay: Antagonist activity at RXRalpha (unknown origin) transfected in human HeLa cells at 31.25 uM incubated for 24 hrs by dual luciferase reporter assay; type: cell-based; conditions: filed as antagonist
T1 sequence (whole entry): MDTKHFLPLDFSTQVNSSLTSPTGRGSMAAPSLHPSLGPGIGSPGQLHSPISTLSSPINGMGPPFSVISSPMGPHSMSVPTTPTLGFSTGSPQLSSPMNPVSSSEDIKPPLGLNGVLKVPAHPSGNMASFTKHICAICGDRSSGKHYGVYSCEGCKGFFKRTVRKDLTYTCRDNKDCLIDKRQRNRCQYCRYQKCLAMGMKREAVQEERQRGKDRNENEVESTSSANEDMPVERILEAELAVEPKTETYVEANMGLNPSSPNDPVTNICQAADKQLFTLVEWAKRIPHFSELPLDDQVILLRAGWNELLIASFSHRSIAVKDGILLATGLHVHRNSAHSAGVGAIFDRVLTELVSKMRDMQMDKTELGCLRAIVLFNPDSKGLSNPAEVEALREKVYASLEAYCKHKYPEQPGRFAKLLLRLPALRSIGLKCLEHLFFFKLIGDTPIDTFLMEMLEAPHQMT

[23] = molecular target: T1, Retinoic acid receptor RXR-alpha (Homo sapiens); assay: Antagonist activity at RXRalpha (unknown origin) transfected in human HeLa cells assessed as inhibition of CD3254- induced receptor transactivation incubated for 24 hrs by dual luciferase reporter assay; type: cell-based; conditions: filed as antagonist, dose 12.5-100 µM
MDA-MB-231 [24] = assay: Induction of cell cycle arrest in human MDA-MB-231 cells assessed as accumulation of cells at G1 phase at 31.25 nM incubated for 12 hrs by flow cytometry analysis (reference value: 43.2%); type: functional
A549 [25] = assay: Induction of cell cycle arrest in human A549 cells assessed as accumulation of cells at G2 phase at 62.5 nM incubated for 12 hrs by flow cytometry analysis (reference value: 8.62%); type: functional
[26] = Apparent volume of distribution during terminal phase in Sprague-Dawley rat at 25 mg/kg, ip measured for 48 hrs by LC-MS/MS analysis; type: ADME, organism-based; conditions: in vivo, read-out: Vz/F
MDA-MB-231 [27] = assay: Induction of apoptosis in human MDA-MB-231 cells assessed as dead cells at 62.5 nM incubated for 24 hrs by annexin V-FITC/PI staining based flow cytometry analysis (reference value: 0.69%); type: functional
MDA-MB-231 [28] = assay: Upregulation of phosphorylated RXRalpha protein level in human MDA-MB-231 cells at 125 to 500 nM measured after 24 hrs by Western blot analysis; type: functional, cell-based; conditions: dose 125-500 nM

Chain of Nuclear receptor subfamily 4immunitygroup A member 1 (Homo sapiens) (P22736 whole entry): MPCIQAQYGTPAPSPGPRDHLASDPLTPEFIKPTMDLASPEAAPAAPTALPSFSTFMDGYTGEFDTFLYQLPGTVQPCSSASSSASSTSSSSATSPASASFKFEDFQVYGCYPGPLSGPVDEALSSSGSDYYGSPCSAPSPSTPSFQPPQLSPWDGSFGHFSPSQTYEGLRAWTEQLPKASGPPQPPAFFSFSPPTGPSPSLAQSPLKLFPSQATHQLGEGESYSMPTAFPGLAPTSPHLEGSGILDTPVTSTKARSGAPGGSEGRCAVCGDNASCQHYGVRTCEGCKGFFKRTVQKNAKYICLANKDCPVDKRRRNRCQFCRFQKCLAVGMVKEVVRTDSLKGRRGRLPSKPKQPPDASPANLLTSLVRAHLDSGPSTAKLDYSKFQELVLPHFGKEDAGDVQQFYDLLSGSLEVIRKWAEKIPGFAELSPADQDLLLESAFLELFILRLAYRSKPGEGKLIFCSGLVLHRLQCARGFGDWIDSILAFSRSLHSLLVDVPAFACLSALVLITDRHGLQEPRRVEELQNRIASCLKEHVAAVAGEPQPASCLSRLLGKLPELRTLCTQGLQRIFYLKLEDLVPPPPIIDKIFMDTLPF

## O=C(/C=C/c1ccccc1)Nc1cc(-c2ccnc(N3CCC(CO)CC3)c2)ccn1
MDA-MB-231 [1]
  Activity: Active
[2]
  half-life: 2.23 h
[3]
  Drug absorption: Not Active
[4]
  IC50 at 72 h: 18.6 µM
MDA-MB-231 [5]
  inhibition at 0.0625 µM: 100%
MDA-MB-231 [6]
  Activity: inactive
A549 [7]
  Activity: 2.24%
A549 [8]
  Activity: 8.95%
A549 [9]
  Activity: 31.99%
[10]
  Activity: inactive
A549 [11]
  Activity: 51.91%
[12]
  Activity: Non-Toxic
MDA-MB-231 [13]
  inhibition: Dose-Dependent Effect
[14]
  Ratio IC50: 15.81
MDA-MB-231 [15]
  Activity: Active
MDA-MB-231 [16]
  Activity: 14.7%
MDA-MB-231 [17]
  Activity: 41.47%
MDA-MB-231 [18]
  Activity: 2.78%
MDA-MB-231 [19]
  Activity: 16.51%
A549 [20]
  Activity: 32.4%
MDA-MB-231 [21]
  Activity: 14.05%
[22]
  Activity: Active
[23]
  inhibition: Dose-Dependent Effect
MDA-MB-231 [24]
  Activity: 42.63%
A549 [25]
  Activity: 12.89%
[26]
  Vd/F: 5.15 L/kg
MDA-MB-231 [27]
  Activity: 2.47%
MDA-MB-231 [28]
  Activity: Active
